# Measurements: ChEMBL document CHEMBL1201862, “PubChem BioAssay data set” (2004)
#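 Where inhibition never reached the appropriate level, the endpoint shown equals the highest concentration tested. Otherwise, values were interpolated linearly from a five-concentration, 48-hour dose response in 96-well plates. Here, GI50 denotes the concentration required for 50% inhibition of growth.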 The source made the active and inactive calls. Rule as the data show it: active = GI50 up to about 1.1 µM and inactive = higher.
# How the values were obtained:
# Test in all cases: growth of human tumour cells (NCI), 48 h
# TK-10 = test system: TK-10
# SNB-78 = test system: SNB-78
# OVCAR-5 = test system: OVCAR-5
# DLD-1 = test system: DLD-1
# SK-MEL-2 = test system: SK-MEL-2
# OVCAR-3 = test system: OVCAR-3
# LXFL 529 = test system: LXFL 529
# M19-MEL = test system: M19-MEL
# SF-295 = test system: SF-295
# SK-MEL-5 = test system: SK-MEL-5
# EKVX = test system: EKVX
# XF498 = test system: XF498
# SF-539 = test system: SF-539
# DMS-114 = test system: DMS-114
# NCI-H522 = test system: NCI-H522
# NCI-H460 = test system: NCI-H460
# SNB-75 = test system: SNB-75
# HOP-18 = test system: HOP-18
# SK-MEL-28 = test system: SK-MEL-28
# Malme-3M = test system: Malme-3M
# IGROV-1 = test system: IGROV-1
# U-251 = test system: U-251
# DMS-273 = test system: DMS-273
# K562 = test system: K562
# OVCAR-4 = test system: OVCAR-4
# NCI-H23 = test system: NCI-H23
# SK-OV-3 = test system: SK-OV-3
# MOLT-4 = test system: MOLT-4
# KM-20L2 = test system: KM-20L2
# ACHN = test system: ACHN
# M14 = test system: M14
# SW-620 = test system: SW-620
# RXF 631 = test system: RXF 631
# 786-0 = test system: 786-0
# HCC 2998 = test system: HCC 2998
# UACC-257 = test system: UACC-257
# HCT-15 = test system: HCT-15
# COLO 205 = test system: COLO 205
# SN12C = test system: SN12C
# UACC-62 = test system: UACC-62
# A549 = test system: A549
# NCI-H226 = test system: NCI-H226
# RXF 393 = test system: RXF 393
# SR = test system: SR
# CAKI-1 = test system: CAKI-1
# OVCAR-8 = test system: OVCAR-8
# UO-31 = test system: UO-31
# HOP-92 = test system: HOP-92
# HT-29 = test system: HT-29
# RPMI-8226 = test system: RPMI-8226
# SNB-19 = test system: SNB-19
# KM12 = test system: KM12
# HCT-116 = test system: HCT-116
# A498 = test system: A498
# LOX IMVI = test system: LOX IMVI
# CCRF-CEM = test system: CCRF-CEM
# SF-268 = test system: SF-268
# HOP-62 = test system: HOP-62
# HL-60 = test system: HL-60
structure (smiles),measurement,setting,value
CC(C)(C)c1cc(C(O)(C(F)(F)F)C(F)(F)F)c2c(c1)C(C(F)(F)F)(C(F)(F)F)OC(C(C)(C)C)N2 (stereo not drawn),GI50,TK-10,3.27 µM (inactive)
same,GI50,SNB-78,2.75 µM (inactive)
same,GI50,OVCAR-5,10.9 µM (inactive)
same,GI50,DLD-1,4.21 µM (inactive)
same,GI50,SK-MEL-2,2.55 µM (inactive)
same,GI50,OVCAR-3,2.58 µM (inactive)
same,GI50,LXFL 529,2.82 µM (inactive)
same,GI50,M19-MEL,2.47 µM (inactive)
same,GI50,SF-295,2.63 µM (inactive)
same,GI50,SK-MEL-5,1.57 µM (inactive)
same,GI50,EKVX,4.22 µM (inactive)
same,GI50,XF498,< 0.01 µM (active)
same,GI50,SF-539,2.55 µM (inactive)
same,GI50,DMS-114,1.12 µM (inactive)
same,GI50,NCI-H522,2.75 µM (inactive)
same,GI50,NCI-H460,3.27 µM (inactive)
same,GI50,SNB-75,2.56 µM (inactive)
same,GI50,HOP-18,2.55 µM (inactive)
same,GI50,SK-MEL-28,5.16 µM (inactive)
same,GI50,Malme-3M,5.31 µM (inactive)
same,GI50,IGROV-1,4.95 µM (inactive)
same,GI50,U-251,3.61 µM (inactive)
same,GI50,DMS-273,2.18 µM (inactive)
same,GI50,K562,2.39 µM (inactive)
same,GI50,OVCAR-4,6.28 µM (inactive)
same,GI50,NCI-H23,2.64 µM (inactive)
same,GI50,SK-OV-3,1.43 µM (inactive)
same,GI50,MOLT-4,1.63 µM (inactive)
same,GI50,KM-20L2,2.86 µM (inactive)
same,GI50,ACHN,2.72 µM (inactive)
same,GI50,M14,5.13 µM (inactive)
same,GI50,SW-620,3.21 µM (inactive)
same,GI50,RXF 631,2.15 µM (inactive)
same,GI50,786-0,3.24 µM (inactive)
same,GI50,HCC 2998,3.88 µM (inactive)
same,GI50,UACC-257,2.81 µM (inactive)
same,GI50,HCT-15,2.99 µM
same,GI50,COLO 205,3.3 µM (inactive)
same,GI50,SN12C,3.3 µM (inactive)
same,GI50,UACC-62,3.56 µM (inactive)
same,GI50,A549,3.28 µM (inactive)
same,GI50,NCI-H226,2.7 µM (inactive)
same,GI50,RXF 393,0.382 µM (active)
same,GI50,SR,2.24 µM (inactive)
same,GI50,CAKI-1,3.12 µM (inactive)
same,GI50,OVCAR-8,3.05 µM (inactive)
same,GI50,UO-31,7.55 µM (inactive)
same,GI50,HOP-92,< 0.01 µM (active)
same,GI50,HT-29,2.69 µM (inactive)
same,GI50,RPMI-8226,1.95 µM (inactive)
same,GI50,SNB-19,5.79 µM (inactive)
same,GI50,KM12,3.65 µM (inactive)
same,GI50,HCT-116,1.96 µM (inactive)
Cc1cc(C)nc(NS(=O)(=O)c2ccc(NC(=O)c3ccc(Cl)c4c(Nc5ccc(S(=O)(=O)Nc6nc(C)cc(C)n6)cc5)c5ccccc5nc34)cc2)n1,GI50,TK-10,33.4 µM (inactive)
same,GI50,SNB-78,3.71 µM (inactive)
same,GI50,OVCAR-5,15.7 µM (inactive)
same,GI50,DLD-1,21.9 µM (inactive)
same,GI50,A498,23.8 µM (inactive)
same,GI50,SK-MEL-2,13.7 µM (inactive)
same,GI50,OVCAR-3,29.2 µM (inactive)
same,GI50,LXFL 529,4.69 µM (inactive)
same,GI50,M19-MEL,2.91 µM (inactive)
same,GI50,LOX IMVI,3.91 µM (inactive)
same,GI50,SF-295,25.4 µM (inactive)
same,GI50,SK-MEL-5,17.7 µM (inactive)
same,GI50,EKVX,48.1 µM (inactive)
same,GI50,XF498,> 100 µM (inactive)
same,GI50,SF-539,2.22 µM (inactive)
same,GI50,DMS-114,2.87 µM (inactive)
same,GI50,NCI-H460,17 µM (inactive)
same,GI50,SNB-75,21.3 µM (inactive)
same,GI50,HOP-18,2.32 µM (inactive)
same,GI50,SK-MEL-28,4.28 µM (inactive)
same,GI50,Malme-3M,14.4 µM (inactive)
same,GI50,IGROV-1,3.31 µM (inactive)
same,GI50,U-251,3.24 µM (inactive)
same,GI50,DMS-273,6.34 µM (inactive)
same,GI50,K562,9.95 µM (inactive)
same,GI50,OVCAR-4,11 µM (inactive)
same,GI50,NCI-H23,3.75 µM (inactive)
same,GI50,SK-OV-3,13.7 µM (inactive)
same,GI50,CCRF-CEM,4.09 µM (inactive)
same,GI50,SF-268,4.41 µM (inactive)
same,GI50,MOLT-4,4.5 µM (inactive)
same,GI50,KM-20L2,6.43 µM (inactive)
same,GI50,ACHN,26.9 µM (inactive)
same,GI50,M14,2.64 µM (inactive)
same,GI50,SW-620,18.2 µM (inactive)
same,GI50,HOP-62,6.44 µM (inactive)
same,GI50,RXF 631,4.29 µM (inactive)
same,GI50,786-0,5.18 µM (inactive)
same,GI50,UACC-257,27.7 µM (inactive)
same,GI50,HCT-15,26.9 µM
same,GI50,COLO 205,15.9 µM (inactive)
same,GI50,SN12C,3.14 µM (inactive)
same,GI50,UACC-62,2.04 µM (inactive)
same,GI50,A549,22.8 µM (inactive)
same,GI50,RXF 393,2.16 µM (inactive)
same,GI50,CAKI-1,42.3 µM (inactive)
same,GI50,OVCAR-8,17.4 µM (inactive)
same,GI50,UO-31,24.9 µM (inactive)
same,GI50,HOP-92,2.08 µM (inactive)
same,GI50,HT-29,31.7 µM (inactive)
same,GI50,RPMI-8226,3.72 µM (inactive)
same,GI50,SNB-19,4.89 µM (inactive)
same,GI50,KM12,21.8 µM (inactive)
same,GI50,HCT-116,1.82 µM (inactive)
same,GI50,HL-60,3.15 µM (inactive)
